Measured values published in publication PMC7463714, “Design and Synthesis of Novel Hybrid 8-Hydroxy Quinoline-Indole Derivatives as Inhibitors of Aβ Self-Aggregation and Metal Chelation-Induced Aβ Aggregation” (Molecules, 2020).
“Also recorded” adds a separate entry of the source.

Key:
Aβ1–42 = biological target: T1, Aβ1–42 (Homo sapiens, UniProt P05067); assay: Self-induced Aβ1–42 aggregation, thioflavin T (ThT) fluorescence assay; assay type: biochemical; conditions: 25 µM Aβ1–42; compound 0.3-27 µM; 37 °C, 48 h; ThT fluorescence; read-out: EC50 against self-induced Aβ1–42 aggregation
T1 construct: Aβ1–42 (Adooq Bioscience, CA, USA); purchased Adooq Bioscience
Protocol: The novel hybrid 8-hydroxyquinoline-indole derivatives, 7a–7e, 12a, 12b, and the (8-hydroxyquinolin-2-yl)methyl-4-(1H-indole-2-carbonyl)piperazine-1-carboxylate analogs 18a–18h were evaluated for inhibitory activity against self-induced Aβ1–42 aggregation at five different concentrations (0.3, 1.0, 3, 9 and 27 µM) with 25 µM Aβ1–42, utilizing a thioflavin T (ThT) fluorescence assay with clioquinol, 1 as a positive control (Figure 3). In the absence of inhibitor, the self-induced Aβ1–42 aggregation ThT fluorescence was recorded as 115 arbitrary units (a.u.). The self-induced Aβ1–42 aggregation results for all the above synthetic analogs from the ThT fluorescence assay are shown in Table 1. […] The thioflavin T (ThT)-fluorescence assay was used to measure the inhibition of Aβ aggregation. Aβ1–42 (Adooq Bioscience, CA, USA) was pretreated with 1 mL of hexafluoroisopropanol (HFIP) to afford a stock solution, which was aliquoted into small samples. The solvent was evaporated at room temperature, and samples were stored at −80 °C. For Aβ1–42 aggregation inhibition experiments, phosphate buffer (pH 7.4) was added to the Aβ stock solution to afford a 50 µM concentration before use. A mixture of the Aβ1–42 peptide (10 µL, 25 µM final concentration) with or without the test compound (10 µL; 0.3, 1.0, 3, 9, and 27 µM) was incubated at 37 °C for 48 h. Blanks using phosphate buffer (pH 7.4) instead of Aβ, with or without test compound, were also assessed. Then 50 mM glycine-NaOH buffer (pH 8.0) containing ThT (5 µM) was added to 20 µL of the sample to afford a final volume of 200 µL. The fluorescence intensities were recorded (excitation, 450 nm; emission, 485 nm). The fluorescence intensities were background corrected to the no enzyme control and 100% of intensity reflected no inhibition of aggregation. To obtain the normalized amyloid aggregation inhibition relative to the control group, the amyloid aggregation/cell values were further divided by the total amyloid fluorescence of the control group. Using GraphPad Prism, the amyloid aggregation values (relative to control group) were entered along the corresponding concentrations for the triplicates and then a log transformation was obtained. Using the dose–response simulation module in GraphPad Prism, nonlinear regression fit (curve) was then generated for each small molecule with various concentrations used. Curves were then compared to determine if they were statistically different, by performing the best-fit values of selected unshared parameters between data sets and extra sum-of-squares F test, allowing for selection of the simpler model unless the P value was less than 0.05. The logEC50 output parameter was then selected to obtain the EC50 for each of the dose–response curves for the small molecules.

[1] = biological target: T2, Zn^2+-induced Aβ1–42 aggregation (Homo sapiens, UniProt P05067); assay: Zn2+-induced Aβ1–42 aggregation, ThT fluorescence assay; assay type: biochemical; conditions: compound 50 µM; Aβ1–42 25 µM; Zn^2+ 25 µM; 24 h, 37 °C
T2 construct: Aβ1–42 (Adooq Bioscience, CA, USA); purchased Adooq Bioscience
Protocol: (§1) Initially, CuSO4 or ZnCl2 was added to Aβ1–42 peptides at room temperature and the mixture incubated with or without drugs for 24 h at 37 °C. The fluorescence intensity of Aβ1–42 peptide alone was designated as 100%.
(§2) Mixtures of the peptide (10 µL, 25 µM final concentration) with or without Cu^2+ or Zn^2+ (10 µL, 25 μM final concentration) and the test compound (10 µL, 50 μM final concentration) were incubated at 37 °C for 24 h. Then 50 mM glycine-NaOH buffer (pH 8.0) containing ThT (5 µM) was added to 20 µL of the sample and diluted to afford a final volume of 200 µL. Fluorescence intensities of the solutions were recorded (excitation, 450 nm; emission, 485 nm). The percentage of […] was calculated by the expression (1 − IFi/IFc) × 100, in which IFi and IFc are the fluorescence intensities obtained for Aβ in the presence and absence of inhibitors, respectively.

[2] = biological target: T3, Cu^2+-induced Aβ1–42 aggregation (Homo sapiens, UniProt P05067); assay: Cu2+-induced Aβ1–42 aggregation, ThT fluorescence assay; assay type: biochemical; conditions: compound 50 µM; Aβ1–42 25 µM; Cu^2+ 25 µM; 24 h, 37 °C
T3 construct: Aβ1–42 (Adooq Bioscience, CA, USA); purchased Adooq Bioscience
Protocol: as §1, §2

SY5Y-APPSw cells = assay: Protein aggregation in SY5Y-APPSw cells (ThT staining); assay type: cell-based; conditions: 1 µM, 48 h, 37 °C; compared to clioquinol (1)
Protocol: In another study compounds 7a–7d, 18c–18f, and 18h were also evaluated for their ability to reduce protein aggregation in SY5Y-APPSw cells. SY5Y-APPSw cells were exposed to the above protein aggregation inhibitors and parent compound 1 at 1 µM for 48 h at 37 °C. Cells were assessed for amyloid deposits by staining with 0.1% w/v ThT, counterstaining nuclei with DAPI, and mean ThT fluorescence signal per nucleus calculated over multiple fields. All the analogs reduced fluorescence intensity (indicative of protein aggregation) by 22–67% (P < 0.001 by 2-tailed t-test). […] Thioflavin-T fluorescence assays for in vitro amyloid aggregation and cell culture models of amyloid aggregation overlap but are not identical. This is due to the fact that thioflavin in cell-culture stains not just amyloid aggregates but also other amyloid-like fibrillar structures. Another important difference is that in vitro aggregation is assessed after 24 h, whereas aggregation in cell culture is assessed after 48 h.
(§3) Human Embryonic Kidney cells that overexpress tau protein (HEK-tau) cells or SY5Y neuroblastoma cells that express a familial-AD mutant of amyloid precursor protein (SY5Y-APPSw cells) were each seeded in 96-well plates at 8000 cells per well. After 24 h, cells were supplemented with test compound at 1 µM after diluting with medium. Vehicle only control was also included for each experiment. The cells were cultured for an additional 48 h at 37 °C. Both the cell lines were able to reach approximately 80% confluency in 48 h. Cells were assessed for amyloid deposits by staining with 0.1% w/v ThT, counterstaining nuclei with DAPI, and calculating mean ThT fluorescence signal per nucleus over multiple fields.

HEK-tau cells = assay: Protein aggregation in HEK-tau cells (ThT staining); assay type: cell-based, Human; conditions: 1 µM, 48 h, 37 °C; compared to clioquinol (1)
Protocol: In our study, we have shown that restoring metal homeostasis by treatment with hybrid 8-hydroxyquinoline-indole analogs reduces tau- and amyloid-mediated protein aggregation, and their associated neurotoxicity. Analogs 7a–7d, 18c–18f, and 18h were evaluated for their ability to reduce protein aggregation in HEK-tau cells. HEK-tau cells were exposed to the above Aβ1–42 aggregation inhibitors and parent drug clioquinol (1) at 1 µM for 48 h at 37 °C. Cells were assessed for amyloid deposits by staining with 0.1% w/v thioflavin T, counterstaining nuclei with DAPI, and mean ThT fluorescence signal per nucleus was calculated over multiple fields. All the analogs reduced fluorescence intensity (indicative of protein aggregation) by 26–62% (P < 0.001 by 2-tailed t-test).
as §3

T1 sequence (P05067 672-713 limits assumed): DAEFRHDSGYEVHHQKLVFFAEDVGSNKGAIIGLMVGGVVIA
T2 sequence (P05067 672-713 limits assumed): as above
T3 sequence (P05067 672-713 limits assumed): as above

EC50 (Aβ1–42)	Structure (SMILES)	further results
> 10 µM	COc1ccc2[nH]c(C(=O)NCc3ccc4c(Cl)cc(Cl)c(O)c4n3)cc2c1 [Compound 12b, N-((5,7-Dichloro-8-hydroxyquinolin-2-yl)methyl)-5-methoxy-1H-indole-2-carboxamide]	
3.22 µM	COc1ccc2[nH]c(C(=O)OCc3ccc4cccc(O)c4n3)cc2c1 [Compound 7c, (8-Hydroxyquinolin-2-yl)methyl-5-methoxy-1H-indole-2-carboxylate]	
> 10 µM	O=C(OCc1ccc2cccc(O)c2n1)N1CCN(C(=O)c2cc3ccccc3[nH]2)CC1 [Compound 18a, (8-Hydroxyquinolin-2-yl)methyl-4-(1H-indole-2-carbonyl)piperazine-1-carboxylate]	
1.72 µM	O=C(OCc1ccc2c(Cl)cc(Cl)c(O)c2n1)N1CCN(C(=O)c2cc3ccccc3[nH]2)CC1 [Compound 18c, (5,7-Dichloro-8-hydroxyquinolin-2-yl)methyl-4-(1H-indole-2-carbonyl)piperazine-1-carboxylate]	decrease of ThT fluorescence / inhibition of Zn^2+-induced Aβ1–42 aggregation [1]: 70.3%; decrease of ThT fluorescence / inhibition of Cu^2+-induced Aβ1–42 aggregation [2]: 76.6%; protein aggregation inhibition in SY5Y-APPSw cells, result in words (SY5Y-APPSw cells): effective in reducing protein aggregation; protein aggregation inhibition in HEK-tau cells, result in words (HEK-tau cells): most effective; also recorded: effective in reducing protein aggregation
> 20 µM	O=C(O)c1cc2ccccc2[nH]1 [Compound 5a, 1H-indole-2-carboxylic acid, reference compound]	
9.52 µM	O=C(OCc1ccc2c(Cl)cc(Cl)c(O)c2n1)c1cc2cc(F)ccc2[nH]1 [Compound 7e, (5,7-Dichloro-8-hydroxyquinolin-2-yl)methyl-5-fluoro-1H-indole-2-carboxylate]	
2.49 µM	COc1ccc2[nH]c(C(=O)N3CCN(C(=O)OCc4ccc5c(Br)cc(Br)c(O)c5n4)CC3)cc2c1 [Compound 18e, (5,7-Dibromo-8-hydroxyquinolin-2-yl)methyl-4-(5-methoxy-1H-indole-2-carbonyl)piperazine-1-carboxylate]	
4.26 µM	O=C(OCc1ccc2cccc(O)c2n1)c1cc2ccccc2[nH]1 [Compound 7a, (8-Hydroxyquinolin-2-yl)methyl-1H-indole-2-carboxylate]	protein aggregation inhibition in SY5Y-APPSw cells, result in words (SY5Y-APPSw cells): most effective
9.95 µM	Oc1c(I)cc(Cl)c2cccnc12 [Compound 1, Clioquinol, reference compound]	decrease of ThT fluorescence / inhibition of Zn^2+-induced Aβ1–42 aggregation [1]: 57.2%; decrease of ThT fluorescence / inhibition of Cu^2+-induced Aβ1–42 aggregation [2]: 62.5%
9.28 µM	O=C(OCc1ccc2c(Cl)cc(Cl)c(O)c2n1)c1cc2ccccc2[nH]1 [Compound 7b, (5,7-Dichloro-8-hydroxyquinolin-2-yl)methyl-1H-indole-2-carboxylate]	
6.34 µM	O=C(OCc1ccc2cccc(O)c2n1)c1cc2cc(F)ccc2[nH]1 [Compound 7d, (8-Hydroxyquinolin-2-yl)methyl-5-fluoro-1H-indole-2-carboxylate]	
> 10 µM	O=C(NCc1ccc2c(Cl)cc(Cl)c(O)c2n1)c1cc2ccccc2[nH]1 [Compound 12a, N-((5,7-Dichloro-8-hydroxyquinolin-2-yl)methyl)-1H-indole-2-carboxamide]	
> 10 µM	O=C(OCc1ccc2c(Cl)cc(Cl)c(O)c2n1)N1CCN(C(=O)c2cc3cc(F)ccc3[nH]2)CC1 [Compound 18g, (5,7-Dichloro-8-hydroxyquinolin-2-yl)methyl-4-(5-fluoro-1H-indole-2-carbonyl)piperazine-1-carboxylate]	
1.48 µM	COc1ccc2[nH]c(C(=O)N3CCN(C(=O)OCc4ccc5cccc(O)c5n4)CC3)cc2c1 [Compound 18d, (8-Hydroxyquinolin-2-yl)methyl-4-(5-methoxy-1H-indole-2-carbonyl)piperazine-1-carboxylate]	decrease of ThT fluorescence / inhibition of Zn^2+-induced Aβ1–42 aggregation [1]: 59.3%; decrease of ThT fluorescence / inhibition of Cu^2+-induced Aβ1–42 aggregation [2]: 66.1%; protein aggregation inhibition in SY5Y-APPSw cells, result in words (SY5Y-APPSw cells): most effective; also recorded: effective in reducing protein aggregation; protein aggregation inhibition in HEK-tau cells, result in words (HEK-tau cells): effective in reducing protein aggregation
2.58 µM	O=C(OCc1ccc2cccc(O)c2n1)N1CCN(C(=O)c2cc3cc(F)ccc3[nH]2)CC1 [Compound 18h]	
> 10 µM	O=C(OCc1ccc2c(Br)cc(Br)c(O)c2n1)N1CCN(C(=O)c2cc3ccccc3[nH]2)CC1 [Compound 18b, (5,7-Dibromo-8-hydroxyquinolin-2-yl)methyl-4-(1H-indole-2-carbonyl)piperazine-1-carboxylate]	
